Experiment [1] has as its target Vasopressin V2 receptor (Sus scrofa) (UniProt P32307). The experiment can be described thus: Vasopressin V2 receptor binding affinity measured by competition with tritiated LVP lysine vasopressin in pig renal medullary preparation. The note with it: Renal medulla.
In another experiment the target is Vasopressin V2 receptor (Sus scrofa, UniProt P32307). The experiment can be described thus: Inhibition of LVP-sensitive adenylate cyclase in a pig renal medullary preparation. In kind it is tissue-based, Renal medulla.

Usually pKi stands for −log10 of the Ki, conventionally taken in molar units. A lower pKi goes with a large Ki.

pKi: −log10 of the molar value. Bridge positions count the residues as written; N and C are the ends. Square brackets hold non-standard residues; d marks the D form. Peptide text beside a SMILES is read from it. Mpa = O=C(O)CCS

Sequence of Vasopressin V2 receptor (Sus scrofa) (P32307 whole entry): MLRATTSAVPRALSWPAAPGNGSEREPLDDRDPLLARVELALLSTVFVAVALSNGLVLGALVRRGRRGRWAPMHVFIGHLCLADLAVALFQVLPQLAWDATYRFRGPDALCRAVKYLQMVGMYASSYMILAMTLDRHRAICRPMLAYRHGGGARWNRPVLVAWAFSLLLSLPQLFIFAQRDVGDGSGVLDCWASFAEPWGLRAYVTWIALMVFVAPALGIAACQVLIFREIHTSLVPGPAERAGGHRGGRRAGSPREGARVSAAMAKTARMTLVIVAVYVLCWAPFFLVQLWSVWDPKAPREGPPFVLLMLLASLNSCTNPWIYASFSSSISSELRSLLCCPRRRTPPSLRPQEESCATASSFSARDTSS
Sequence of Vasopressin V2 receptor (P32307 whole entry): as above

Take `CC(C)[C@@H]1NC(=O)[C@H](Cc2ccccc2)NC(=O)[C@H](Cc2ccccc2)NC(=O)CCC[C@@H](C(=O)N2CCC[C@H]2C(=O)N[C@@H](CCCN=C(N)N)C(=O)NCC(N)=O)NC(=O)[C@H](CC(N)=O)NC1=O`: in experiment [1], the K bind came to 15 µM. Also, at Vasopressin V2 receptor, the negative logarithm of the Ki (pKi) was 5.15.
The matching figures for `CC(C)[C@@H]1NC(=O)[C@H](Cc2ccccc2)NC(=O)[C@H](Cc2ccccc2)NC(=O)CCSSC[C@@H](C(=O)N2CCC[C@H]2C(=O)N[C@@H](CCCN=C(N)N)C(=O)NCC(N)=O)NC(=O)[C@H](CC(N)=O)NC1=O` ([Mpa]FFVNCPRG-NH2; disulfide 1-6): 0.1 µM and 8.00.
The matching figures for `CC(C)[C@@H]1NC(=O)[C@H](Cc2ccccc2)NC(=O)[C@H](Cc2ccccc2)NC(=O)CCC[C@H](C(=O)N2CCC[C@H]2C(=O)N[C@@H](CCCN=C(N)N)C(=O)NCC(N)=O)NC(=O)[C@H](CC(N)=O)NC1=O`: 29 µM and 5.04.

The values are drawn from ChEMBL document CHEMBL1124075, “Design, synthesis, and biological activity of a peptide mimic of vasopressin” (J Med Chem, 1988).
